Measurements taken from PubChem BioAssay AID1996.
≈ marks a conversion by molar mass, not a printed value.

Conditions: buffer; pH 7.4; 200.0 µM

SMILES | solubility kinetic
O=C(COC(=O)c1ccc(O)cc1)Nc1ncc(Cl)cc1Cl | 31.5 µg/mL (≈ 92.3 µM)
CCN(CC)S(=O)(=O)c1ccc(NC(=O)c2cnccn2)cc1 | 7.8 µg/mL (≈ 23.3 µM)
COc1ccc(NC(=O)Cn2c(C)csc2=O)c(OC)c1 | > 46.3 µg/mL
Cc1ccccc1C(=O)OC1CCN(C)CC1.Cl | > 40.5 µg/mL
Cc1ccc(S(=O)(=O)N2CCN(C3CC(=O)N(c4ccc(F)cc4)C3=O)CC2)cc1C (stereo not given) | 52.5 µg/mL (≈ 118 µM)
O=C(COc1ccccc1Cl)Nc1ccc2c(c1)OCO2 | 1.2 µg/mL (≈ 3.93 µM)
COc1ccc(NC(=O)CC(Cc2ccc(Cl)cc2)C(=O)O)cc1 (stereo not given) | > 52.2 µg/mL
COc1ccc(-c2nc3ccc(C)cc3c(=O)o2)cc1OC | < 0.6 µg/mL
Cc1cc(C(=O)OCC(=O)c2ccccc2)c2ccccc2n1 | 3.6 µg/mL (≈ 11.8 µM)
O=C(c1ccc(NC(=O)C2(c3ccccc3)CCCC2)cc1)N1CCOCC1 | > 56.8 µg/mL
CCN(CC)C(=O)Cn1cc(/C=C(\C#N)C(=O)NC2CC2)c2ccccc21 | 43 µg/mL (≈ 118 µM)
CN1C(=O)NC(c2ccccc2Cl)C2=C1CC(C)(C)CC2=O (stereo not given) | > 47.8 µg/mL
CC(=O)Nc1ccc2nc(-c3cccn3C)[nH]c2c1 | 33.4 µg/mL (≈ 131 µM)
CC1(c2ccc(Cl)cc2)NC(=O)N(CC(=O)N2CCc3ccccc32)C1=O (stereo not given) | 1.5 µg/mL (≈ 3.91 µM)
Cc1nn(CC(=O)Nc2ccc(N3CCOCC3)cc2)c(C)c1[N+](=O)[O-] | > 53.9 µg/mL
CC(C)(C)N1CC(C(=O)Nc2cccc(Cl)c2Cl)CC1=O (stereo not given) | > 49.4 µg/mL
COc1ccccc1N(CC(=O)N1CCOCC1)S(C)(=O)=O | > 49.3 µg/mL
Nn1c(C2CCCCC2)nc2ccccc2c1=O | > 36.5 µg/mL
Cc1cc(C(=O)NCc2cc(C(=O)O)co2)co1 | > 37.4 µg/mL
O=C(Cn1ccccc1=S)c1ccc(Cl)c(Cl)c1 | 6.3 µg/mL (≈ 21.1 µM)

SMILES | solubility kinetic
COc1cccc(NC(=O)CN(C)C(=O)c2ccccn2)c1 | > 44.9 µg/mL
COCCn1c(SCC(=O)NNC(=O)c2ccccc2)nc2ccccc21 | > 57.7 µg/mL
c1cncc(-c2nc(-c3ccc4c(c3)OCCO4)cs2)c1 | 4.6 µg/mL (≈ 15.5 µM)
Cc1ccc(S(=O)(=O)N2CCCC(N3CCOCC3)C2)cc1Cl (stereo not given) | > 53.8 µg/mL
OCCN1CCN(C(=S)Nc2ccccc2)CC1 | > 39.8 µg/mL
Clc1ccc2ccc3cccnc3c2n1 | > 32.2 µg/mL
CCCNC(=O)c1noc2c1CCc1cc(OC)ccc1-2 | 5.6 µg/mL (≈ 19.6 µM)
CC1(C)CC(=O)N(c2cccc(Cl)c2)C(=O)C1 | > 37.8 µg/mL
O=C(NCc1nc2ccccc2[nH]1)C1CCCCC1 | > 38.6 µg/mL
COc1cc(/C=C/C(=O)OCC(=O)NCCC2=CCCCC2)cc(OC)c1OC | 33.3 µg/mL (≈ 82.5 µM)
Cc1ccc(NC(=O)NCCN2CCCCC2)cc1C | 37.4 µg/mL (≈ 136 µM)
COc1ccc(OC)c(NC(=O)COC(=O)[C@H](Cc2ccccc2)NC(=O)c2ccco2)c1 | 5.7 µg/mL (≈ 12.6 µM)
CSc1ccc(Cl)c(C(=O)NCCCn2ccnc2)c1 | > 46.5 µg/mL
FCCCOc1ccc(-c2nccc(-c3ccccn3)n2)cc1 | 2.8 µg/mL (≈ 9.05 µM)
Cl.O=c1cc[nH]c2c1ccc1c(=O)cc[nH]c12 | 34.6 µg/mL
COc1ccc(/C=N/OC(=O)c2ccc(Cl)cc2)c(Cl)c1OC | < 0.8 µg/mL
CSc1ccccc1C(=O)NCCCn1ccnc1 | > 41.3 µg/mL
O=C1c2ccccc2NC(c2cccc(O)c2)N1O (stereo not given) | > 38.4 µg/mL
CC1CN(CC(=O)Nc2nc3ccccc3s2)CC(C)O1 (stereo not given) | 39 µg/mL (≈ 128 µM)
Cc1cc(O)c(C(=O)Nc2cccc(Cl)c2)c(=O)n1C | < 0.3 µg/mL

SMILES | solubility kinetic
O=C(Nc1ccc(CN2CCCCC2)cc1)c1cccc(F)c1 | 44.7 µg/mL (≈ 143 µM)
Cc1cc(NC(=O)Cn2c(=O)oc3ccc(Cl)cc32)no1 | 1.5 µg/mL (≈ 4.87 µM)
O=C(Nc1ccc(N2CCCC2)cc1)c1ccccc1[N+](=O)[O-] | 2.4 µg/mL (≈ 7.71 µM)
O=C(CN1C(=O)NC2(CCOc3ccccc32)C1=O)N1CCCCC1 (stereo not given) | > 51.5 µg/mL
COC(=O)c1cccc(NC(=O)c2cc3ccccc3o2)c1 | 13.5 µg/mL (≈ 45.7 µM)
CC(=O)Nc1ccc(SCc2c(C)noc2C)cc1 | > 41.5 µg/mL
Cc1ccc(CN2CCN(c3ncccn3)CC2)c(C)c1 | 19.4 µg/mL (≈ 68.7 µM)
Cc1ccc(C(=O)NC2CC3CCC(C2)N3)cc1 (stereo not given) | > 36.7 µg/mL
CCCN(C(=O)CSc1ncccn1)C1CCS(=O)(=O)C1 (stereo not given) | > 49.4 µg/mL
CN(C(=O)CSc1cccc[n+]1[O-])c1ccccc1 | 35.5 µg/mL (≈ 129 µM)
Cc1nn(C)c(Oc2ccccc2)c1CCNC(=O)C(C)(C)C | > 47.3 µg/mL
COCCn1cnc2c1c(=O)[nH]c(=O)n2Cc1ccccc1 | 37 µg/mL (≈ 123 µM)
O=Cc1ccc(OCC(=O)N2CCOCC2)cc1 | > 37.4 µg/mL
CC(C)NC(=O)N(Cc1ccccc1)Cc1cccs1 | 41.8 µg/mL (≈ 145 µM)
O=C(COc1ccc(-n2ccnc2)cc1)Nc1cccc(F)c1 | 31.1 µg/mL (≈ 99.9 µM)
CCCCNC(=O)c1cc2cc(CC)ccc2[nH]1 | 1.9 µg/mL (≈ 7.78 µM)
CN1CCN(C(=O)CSc2nc3c(c(=O)n(C)c(=O)n3C)n2C)CC1 | 48.1 µg/mL (≈ 131 µM)
Cc1ccc(-c2csc(NS(=O)(=O)c3cccc(F)c3)n2)o1 | > 50.8 µg/mL
CCOc1cccc2cc(C(=O)NCc3ccc(C)cc3)c(=N)oc12 | 2.4 µg/mL (≈ 7.13 µM)
Cc1ccc(-n2c(O)c(C=NCC3CCCO3)c(=O)[nH]c2=O)c(C)c1 (stereo not given) | > 51.5 µg/mL
